Biological target: MLK-3 (Homo sapiens, UniProt Q16584)
Experiment: Biochemical assay for the inhibition of kinase activity for MLK-3 (33P-ATP, HOTSPOT filter binding)
Conditions: activated MLK-3 20 nM, ATP 50 μM, myelin basic protein 20 μM, 20 minutes room temperature
Description: Biochemical Assay for the Inhibition of Kinase Activity for MLK-3: Myelin basic protein (20 μM final concentration) is dissolved in 20 mM Hepes (pH 7.5) containing […], […], 0.02% Brij35, 0.02 mg/ml BSA, 0.1 μM Na3VO4, 2 mM DTT, and 1% DMSO. Activated MLK-3 is added and mixed (20 nM final concentration), and inhibitors are added in DMSO. ^33P-ATP (specific activity 500 μCi/μL) is delivered into the reaction mixture to initiate the reaction (ATP concentration is 50 μM) and the mixture is incubated at room temperature for 20 minutes. % Activity is determined using a proprietary HOTSPOT™ microfluidic filter binding technology. See, Expert Opin. Drug Discov. 2008 June; 3(6): 607-621.

MLK-3, sequence (Q16584 whole entry): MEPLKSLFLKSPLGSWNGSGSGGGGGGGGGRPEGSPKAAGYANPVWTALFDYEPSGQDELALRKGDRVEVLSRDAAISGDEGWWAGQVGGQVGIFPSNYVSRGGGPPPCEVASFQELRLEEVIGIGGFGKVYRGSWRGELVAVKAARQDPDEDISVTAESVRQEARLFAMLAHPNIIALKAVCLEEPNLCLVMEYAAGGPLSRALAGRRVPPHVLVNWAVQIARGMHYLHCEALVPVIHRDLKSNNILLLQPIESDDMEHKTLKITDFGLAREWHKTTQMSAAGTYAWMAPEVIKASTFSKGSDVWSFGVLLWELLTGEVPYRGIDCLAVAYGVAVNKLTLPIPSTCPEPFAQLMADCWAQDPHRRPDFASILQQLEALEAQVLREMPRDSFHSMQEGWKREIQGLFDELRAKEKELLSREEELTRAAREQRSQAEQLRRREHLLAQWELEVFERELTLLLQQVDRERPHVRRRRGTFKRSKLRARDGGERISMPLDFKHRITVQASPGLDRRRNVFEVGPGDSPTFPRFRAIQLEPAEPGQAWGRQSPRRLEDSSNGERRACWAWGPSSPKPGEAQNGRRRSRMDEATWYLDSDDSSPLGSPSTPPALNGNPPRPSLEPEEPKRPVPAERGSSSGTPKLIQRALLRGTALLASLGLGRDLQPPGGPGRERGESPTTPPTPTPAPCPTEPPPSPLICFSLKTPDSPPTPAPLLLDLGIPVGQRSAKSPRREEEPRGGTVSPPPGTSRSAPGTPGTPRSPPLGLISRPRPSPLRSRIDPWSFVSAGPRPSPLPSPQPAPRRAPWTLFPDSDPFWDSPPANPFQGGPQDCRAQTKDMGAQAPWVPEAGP

Row | IC50 [nM] | Compound
1 | 100 to 500 | O[C@H]1CCC[C@@H](Nc2ccc3ncc(-c4cc5ccccc5s4)n3n2)C1 (relative stereo) [Compound 122, cis-3-(3-(benzo[b]thiophen-2-yl)imidazo[1,2-b]pyridazin-6-ylamino)cyclohexanol]
2 | < 100 | COc1cc2cc(-c3cnc4ccc(NC5CCC[C@H](O)C5)nn34)sc2cc1OC (stereo in doubt) [Compound 174, 3-(3-(5,6-dimethoxybenzo[b]thiophen-2-yl)imidazo[1,2-b]pyridazin-6-ylamino)cyclohexanol]
3 | 500 to 1000 | COc1ccc(Nc2ccc3ncc(-c4cc5ccccc5s4)n3n2)cc1C(=O)O [Compound 43, 5-(3-(benzo[b]thiophen-2-yl)imidazo[1,2-b]pyridazin-6-ylamino)-2-methoxybenzoic acid]
4 | 500 to 1000 | O=C(O)c1cc(Nc2ccc3ncc(-c4cc5ccccc5s4)n3n2)ccc1OCCCO [Compound 44, 5-(3-(benzo[b]thiophen-2-yl)imidazo[1,2-b]pyridazin-6-ylamino)-2-(3-hydroxypropoxy)benzoic acid]
5 | < 5000 | O=c1cccc(Nc2ccc3ncc(-c4cc5ccccc5s4)n3n2)[nH]1 [Compound 45, 6-(3-(benzo[b]thiophen-2-yl)imidazo[1,2-b]pyridazin-6-ylamino)pyridin-2-ol]
6 | 100 to 500 | c1cc2cc(-c3ccc4ncc(-c5ccc6[nH]ccc6c5)n4n3)ccc2[nH]1 [Compound 50, 3,6-di(1H-indol-5-yl)imidazo[1,2-b]pyridazine]
7 | 500 to 1000 | COc1ccc(Nc2ccc3ncc(-c4ccc5[nH]ccc5c4)n3n2)cc1OC [Compound 53, 3-(1H-indol-5-yl)-N-(3,4-dimethoxyphenyl)imidazo[1,2-b]pyridazin-6-amine]
8 | < 5000 | COc1cccc(Nc2ccc3ncc(-c4ccc5[nH]ccc5c4)n3n2)c1 [Compound 54, 3-(1H-indol-5-yl)-N-(3-methoxyphenyl)imidazo[1,2-b]pyridazin-6-amine]
9 | 500 to 1000 | CN1CCN(c2cccc(Nc3ccc4ncc(-c5ccc6[nH]ccc6c5)n4n3)c2)CC1 [Compound 56, 3-(1H-indol-5-yl)-N-(3-(4-methylpiperazin-1-yl)phenyl)imidazo[1,2-b]pyridazin-6-amine]
10 | < 5000 | COC(=O)c1cccc(Nc2ccc3ncc(-c4ccc5[nH]ccc5c4)n3n2)c1 [Compound 61, methyl 3-(3-(1H-indol-5-yl)imidazo[1,2-b]pyridazin-6-ylamino)benzoate]
11 | < 5000 | COc1ccc(Nc2ccc3ncc(-c4ccc5ccccc5c4)n3n2)cc1OC [Compound 62, N-(3,4-dimethoxyphenyl)-3-(naphthalen-3-yl)imidazo[1,2-b]pyridazin-6-amine]
12 | 100 to 500 | O=C(O)c1cccc(Nc2ccc3ncc(-c4ccc5ccccc5c4)n3n2)c1 [Compound 63, 3-(3-(naphthalen-3-yl)imidazo[1,2-b]pyridazin-6-ylamino)benzoic acid]
13 | < 100 | COc1cc2cc(-c3cnc4ccc(-c5ccc6[nH]ccc6c5)nn34)sc2cc1OC [Compound 69, 6-(1H-indol-5-yl)-3-(5,6-dimethoxybenzo[b]thiophen-2-yl)imidazo[1,2-b]pyridazine]
14 | < 100 | COc1cc2cc(-c3cnc4ccc(Nc5ccc(OCCCO)c(OC)c5)nn34)sc2cc1OC [Compound 70, 3-(4-(3-(5,6-dimethoxybenzo[b]thiophen-2-yl)imidazo[1,2-b]pyridazin-6-ylamino)-2-methoxyphenoxy)propan-1-ol]
15 | < 100 | COc1cc2cc(-c3cnc4ccc(Nc5cccc(C(=O)O)c5)nn34)sc2cc1OC [Compound 71, 3-(3-(5,6-dimethoxybenzo[b]thiophen-2-yl)imidazo[1,2-b]pyridazin-6-ylamino)benzoic acid]
16 | 100 to 500 | COc1ccc2cc(-c3cnc4ccc(Nc5ccc(OC)c(OC)c5)nn34)sc2c1 [Compound 72, 3-(6-methoxybenzo[b]thiophen-2-yl)-N-(3,4-dimethoxyphenyl)imidazo[1,2-b]pyridazin-6-amine]
17 | 500 to 1000 | COc1cc2cc(-c3cnc4ccc(-c5ccc(CN6CCN(C)CC6)cc5)nn34)sc2cc1OC [Compound 73, 3-(5,6-dimethoxybenzo[b]thiophen-2-yl)-6-(4-((4-methylpiperazin-1-yl)methyl)phenyl)imidazo[1,2-b]pyridazine]
18 | 500 to 1000 | COc1cc2cc(-c3cnc4ccc(-c5cccc(CN6CCN(C)CC6)c5)nn34)sc2cc1OC [Compound 74, 3-(5,6-dimethoxybenzo[b]thiophen-2-yl)-6-(3-((4-methylpiperazin-1-yl)methyl)phenyl)imidazo[1,2-b]pyridazine]
19 | 100 to 500 | COc1ccc(N(C)c2ccc3ncc(-c4cc5cc(OC)c(OC)cc5s4)n3n2)cc1OC [Compound 75, 3-(5,6-dimethoxybenzo[b]thiophen-2-yl)-N-(3,4-dimethoxyphenyl)-N-methylimidazo[1,2-b]pyridazin-6-amine]
20 | < 5000 | COc1ccc(Nc2ccc3ncc(-c4cc5c(OC)c(OC)c(OC)cc5s4)n3n2)cc1OC [Compound 76, 3-(4,5,6-trimethoxybenzo[b]thiophen-2-yl)-N-(3,4-dimethoxyphenyl)imidazo[1,2-b]pyridazin-6-amine]
21 | < 100 | Oc1cccc2cc(-c3cnc4ccc(N[C@H]5CC[C@H](O)CC5)nn34)sc12 [Compound 77]

Further lines, the compound ahead of its results:

Row | Compound | IC50 [nM]
22 | COc1ccc2[nH]c(-c3cnc4ccc(Nc5ccc(OC)c(OC)c5)nn34)cc2c1 [Compound 3, 3-(5-methoxy-1H-indol-2-yl)-N-(3,4-dimethoxyphenyl)imidazo[1,2-b]pyridazin-6-amine] | 100 to 500
23 | COc1ccc2cc(-c3cnc4ccc(Nc5ccc(OC)c(OC)c5)nn34)[nH]c2c1 [Compound 4, 3-(6-methoxy-1H-indol-2-yl)-N-(3,4-dimethoxyphenyl)imidazo[1,2-b]pyridazin-6-amine] | 100 to 500
24 | COc1ccc(Nc2ccc3ncc(-c4cc5cccc(OC)c5[nH]4)n3n2)cc1OC [Compound 5, 3-(7-methoxy-1H-indol-2-yl)-N-(3,4-dimethoxyphenyl)imidazo[1,2-b]pyridazin-6-amine] | < 100
25 | COc1ccc(Nc2ccc3ncc(-c4cccc(O)c4)n3n2)cc1OC [Compound 9, 3-(6-(3,4-dimethoxyphenylamino)imidazo[1,2-b]pyridazin-3-yl)phenol] | < 5000
26 | COc1ccc(Nc2ccc3ncc(-c4cc(OC)c(OC)c(OC)c4)n3n2)cc1OC [Compound 11, 3-(3,4,5-trimethoxyphenyl)-N-(3,4-dimethoxyphenyl)imidazo[1,2-b]pyridazin-6-amine] | < 5000
27 | CN1CCN(c2cccc(Nc3ccc4ncc(-c5cc6ccccc6s5)n4n3)c2)CC1 [Compound 13, 3-(benzo[b]thiophen-2-yl)-N-(3-(4-methylpiperazin-1-yl)phenyl)imidazo[1,2-b]pyridazin-6-amine] | < 5000
28 | COc1cc(Nc2ccc3ncc(-c4cc5ccccc5s4)n3n2)cc(OC)c1OC [Compound 14, 3-(benzo[b]thiophen-2-yl)-N-(3,4,5-trimethoxyphenyl)imidazo[1,2-b]pyridazin-6-amine] | 500 to 1000
29 | COc1cc(Nc2ccc3ncc(-c4cc5ccccc5s4)n3n2)ccc1O [Compound 24, 4-(3-(benzo[b]thiophen-2-yl)imidazo[1,2-b]pyridazin-6-ylamino)-2-methoxyphenol] | 100 to 500
30 | O=C(O)c1ccc(Nc2ccc3ncc(-c4cc5ccccc5s4)n3n2)cc1 [Compound 25, 4-(3-(benzo[b]thiophen-2-yl)imidazo[1,2-b]pyridazin-6-ylamino)benzoic acid] | 500 to 1000
31 | O=C(O)c1cccc(Nc2ccc3ncc(-c4cc5ccccc5s4)n3n2)c1 [Compound 26, 3-(3-(benzo[b]thiophen-2-yl)imidazo[1,2-b]pyridazin-6-ylamino)benzoic acid] | 100 to 500
32 | COc1cc(Nc2ccc3ncc(-c4cc5ccccc5s4)n3n2)ccc1OCCCO [Compound 27, 3-(4-(3-(benzo[b]thiophen-2-yl)imidazo[1,2-b]pyridazin-6-ylamino)-2-methoxyphenoxy)propan-1-ol] | 100 to 500
33 | COc1cc(Nc2ccc3ncc(-c4cc5ccccc5s4)n3n2)ccc1OCC1CC1 [Compound 28, 3-(benzo[b]thiophen-2-yl)-N-(4-(cyclopropylmethoxy)-3-methoxyphenyl)imidazo[1,2-b]pyridazin-6-amine] | < 5000
34 | COc1cc(Nc2ccc3ncc(-c4cc5ccccc5s4)n3n2)ccc1OC(C)C [Compound 30, 3-(benzo[b]thiophen-2-yl)-N-(4-isopropoxy-3-methoxyphenyl)imidazo[1,2-b]pyridazin-6-amine] | < 5000
35 | COc1ccc(Nc2ccc3ncc(-c4cc5ccccc5s4)n3n2)cc1O [Compound 31, 5-(3-(benzo[b]thiophen-2-yl)imidazo[1,2-b]pyridazin-6-ylamino)-2-methoxyphenol] | < 5000
36 | COc1cc(Nc2ccc3ncc(-c4cc5ccccc5s4)n3n2)ccn1 [Compound 34, 3-(benzo[b]thiophen-2-yl)-N-(2-methoxypyridin-4-yl)imidazo[1,2-b]pyridazin-6-amine] | < 5000
37 | CN1CCN(Cc2ccc(-c3ccc4ncc(-c5cc6ccccc6s5)n4n3)cc2)CC1 [Compound 39, 3-(benzo[b]thiophen-2-yl)-6-(4-((4-methylpiperazin-1-yl)methyl)phenyl)imidazo[1,2-b]pyridazine] | < 5000
38 | CN1CCN(Cc2cccc(-c3ccc4ncc(-c5cc6ccccc6s5)n4n3)c2)CC1 [Compound 40, 3-(benzo[b]thiophen-2-yl)-6-(3-((4-methylpiperazin-1-yl)methyl)phenyl)imidazo[1,2-b]pyridazine] | < 5000
39 | O=c1cc(Nc2ccc3ncc(-c4cc5ccccc5s4)n3n2)cc[nH]1 [Compound 41, 4-(3-(benzo[b]thiophen-2-yl)imidazo[1,2-b]pyridazin-6-ylamino)pyridin-2-ol] | 500 to 1000

— patent US9370515B2, “Mixed lineage kinase inhibitors and method of treatments” (CALIFIA BIO, INC., priority 2013, dated 2016)
